Results from US20100179153A1, “Bicyclic S1P Receptor Modulators” (priority 2007, published 2010).
pEC50: −log10 of the molar value.

How the values were obtained:
Format in all cases: biochemical
[1] = target: T1, human S1P1 receptor (Homo sapiens, UniProt P21453); assay: 35S-GTPγS binding assay (SPA), S1P1; settings: membrane protein from transfected CHO cells
T1 construct: expressed in transfected cells; host or cells: CHO-K1 (ATCC CCL 61); RH7777 may also be used
Procedure: (§1) Test 1: ^355-GTPγS Binding Assay
(§2) The S1P receptor modulating properties of an agent of the invention are tested on the human S1P1, S1P2, S1P3, S1P4 and S1P5, respectively, receptor subtypes. The functional receptor activation is assessed by quantifying the compound-induced ^35S-GTPγS binding to membrane protein prepared from transfected heterologous cells stably expressing the appropriate S1P receptor subtype. CHO cells (CHO-K1, Chinese hamster, ATCC no. CCL 61) are used [RH7777 cells (rat Morris hepatoma, ATCC no. CRL 1601) may also be used]. The membrane protein is prepared from wild-type cells and from different cell clones expressing the appropriate S1P receptor subtype. The assay technology used is SPA (scintillation proximity based assay). […] The luminescence of SPA beads triggered by membrane bound ^35S-GTPγS is quantified with a TOPcount plate reader (Packard). To evaluate the S1P receptor modulation, the stimulation (in %) compared to the baseline is calculated as the binding in the presence of the compound divided by the binding in the absence of a ligand, multiplied by 100. […] The selectivity of the compound towards the S1P receptor subtypes is determined by measuring for each of the different S1P receptor subtypes the level of ^35S-GTPγS binding in the presence of the compound using each of the different membrane proteins.

[2] = target: T2, human S1P5 receptor (Homo sapiens, UniProt Q9H228); assay: 35S-GTPγS binding assay (SPA), S1P5; settings: membrane protein from transfected CHO cells; for pEC50: read-out: EC50 for receptor subtype S1P5
T2 construct: expressed in transfected cells; host or cells: CHO-K1 (ATCC CCL 61); RH7777 may also be used
T2 sequence (Q9H228 whole entry): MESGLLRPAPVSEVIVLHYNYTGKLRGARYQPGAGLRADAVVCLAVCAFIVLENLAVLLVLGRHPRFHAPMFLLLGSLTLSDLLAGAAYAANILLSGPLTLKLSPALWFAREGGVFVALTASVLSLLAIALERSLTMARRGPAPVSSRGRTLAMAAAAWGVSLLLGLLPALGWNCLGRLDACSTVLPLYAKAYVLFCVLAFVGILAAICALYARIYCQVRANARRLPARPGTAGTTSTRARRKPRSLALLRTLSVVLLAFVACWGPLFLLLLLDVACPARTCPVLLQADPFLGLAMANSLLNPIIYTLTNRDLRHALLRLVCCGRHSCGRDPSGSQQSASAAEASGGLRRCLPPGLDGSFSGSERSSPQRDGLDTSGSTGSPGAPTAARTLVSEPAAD
Procedure: as §1
The S1P receptor modulating properties of an agent of the invention are tested on the human S1P1, S1P2, S1P3, S1P4 and S1P5, respectively, receptor subtypes. The functional receptor activation is assessed by quantifying the compound-induced ^35S-GTPγS binding to membrane protein prepared from transfected heterologous cells stably expressing the appropriate S1P receptor subtype. CHO cells (CHO-K1, Chinese hamster, ATCC no. CCL 61) are used [RH7777 cells (rat Morris hepatoma, ATCC no. CRL 1601) may also be used]. The membrane protein is prepared from wild-type cells and from different cell clones expressing the appropriate S1P receptor subtype. The assay technology used is SPA (scintillation proximity based assay). A DMSO solution of the test compound is serially diluted and added to SPA-bead (Amersham-Pharmacia) immobilised S1P receptor subtype expressing membrane protein (1 to 20 μg/well) in the presence of 50 mM HEPES, 100 mM NaCl, 10 mM MgCl2, 10 μM GDP, 0.1% fat free BSA and 0.2 nM ^35S-GTPγS (1200 Ci/mmol) (pH 7.4). After incubation in 96 well microtiter plates at room temperature for 120 minutes, the unbound ^35S-GTPγS is separated by centrifugation. The luminescence of SPA beads triggered by membrane bound ^35S-GTPγS is quantified with a TOPcount plate reader (Packard). To evaluate the S1P receptor modulation, the stimulation (in %) compared to the baseline is calculated as the binding in the presence of the compound divided by the binding in the absence of a ligand, multiplied by 100. Dose response curves are plotted using a non-linear regression curve fitting program, and the EC50 is defined as the concentration of the compound required to give 50% of its maximum stimulation. Preferably, the EC50 value of an agent of the invention in this test is 10′000 nM or less. The selectivity of the compound towards the S1P receptor subtypes is determined by measuring for each of the different S1P receptor subtypes the level of ^35S-GTPγS binding in the presence of the compound using each of the different membrane proteins.

[3] = target: T3, human S1P4 receptor (Homo sapiens, UniProt O95977); assay: 35S-GTPγS binding assay (SPA), S1P4; settings: membrane protein from transfected CHO cells
T3 construct: expressed in transfected cells; host or cells: CHO-K1 (ATCC CCL 61); RH7777 may also be used
T3 sequence (O95977 1-384): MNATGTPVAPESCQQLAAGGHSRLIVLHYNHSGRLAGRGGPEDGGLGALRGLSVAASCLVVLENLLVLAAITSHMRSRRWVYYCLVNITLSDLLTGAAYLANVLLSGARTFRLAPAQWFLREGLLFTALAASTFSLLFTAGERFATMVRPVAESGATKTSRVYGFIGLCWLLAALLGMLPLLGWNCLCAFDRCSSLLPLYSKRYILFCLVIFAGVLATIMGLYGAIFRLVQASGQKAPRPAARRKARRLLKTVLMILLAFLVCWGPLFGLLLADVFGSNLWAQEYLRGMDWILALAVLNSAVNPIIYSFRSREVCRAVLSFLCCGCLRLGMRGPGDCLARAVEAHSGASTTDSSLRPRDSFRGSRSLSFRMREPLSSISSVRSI
Procedure: as §1, §2

T1 sequence (P21453 whole entry): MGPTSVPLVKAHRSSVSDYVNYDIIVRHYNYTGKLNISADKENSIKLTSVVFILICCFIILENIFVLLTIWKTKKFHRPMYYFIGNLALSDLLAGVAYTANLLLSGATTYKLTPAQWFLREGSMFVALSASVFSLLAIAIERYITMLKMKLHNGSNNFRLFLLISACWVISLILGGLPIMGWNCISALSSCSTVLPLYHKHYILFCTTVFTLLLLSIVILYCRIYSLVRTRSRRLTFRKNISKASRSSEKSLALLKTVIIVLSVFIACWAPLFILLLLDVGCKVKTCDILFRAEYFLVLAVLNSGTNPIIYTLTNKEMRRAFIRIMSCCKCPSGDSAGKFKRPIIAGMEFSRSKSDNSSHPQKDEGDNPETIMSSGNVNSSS

SMILES | efficacy at S1P1 [1] | efficacy at S1P5 [2] | pEC50 [2] | efficacy at S1P4 [3] | pEC50 ([3]; read-out: EC50 for receptor subtype S1P4)
Cc1cc(F)cc(C)c1Nc1cccc2c(C)n[nH]c(=O)c12 [Example 4, 8-(4-Fluoro-2,6-dimethyl-phenylamino)-4-methyl-2H-phthalazin-1-one] | 58% | 80% | 6.93 | 74% | 6.03
CCc1cc(F)cc(CC)c1Nc1cccc2c(C)n[nH]c(=O)c12 [Example 8, 8-(2,6-Diethyl-4-fluoro-phenylamino)-4-methyl-2H-phthalazin-1-one] | 73% | 81% | 7.57 |  | 
